Experimental data reported in ChEMBL document CHEMBL1828583, “Discovery process and pharmacological characterization of a novel dual orexin 1 and orexin 2 receptor antagonist useful for treatment of sleep disorders” (Bioorg Med Chem Lett, 2011).

Legend:
Liver microsomes = assay: Intrinsic clearance in human liver microsomes; format: ADME, Microsome
Orexin receptor type 2 = target: T1, Orexin receptor type 2 (Homo sapiens, UniProt O43614); assay: Antagonist activity at recombinant human OX2R expressed in CHO cells by FLIPR calcium based functional assay; format: cell-based
T1 sequence (O43614 whole entry): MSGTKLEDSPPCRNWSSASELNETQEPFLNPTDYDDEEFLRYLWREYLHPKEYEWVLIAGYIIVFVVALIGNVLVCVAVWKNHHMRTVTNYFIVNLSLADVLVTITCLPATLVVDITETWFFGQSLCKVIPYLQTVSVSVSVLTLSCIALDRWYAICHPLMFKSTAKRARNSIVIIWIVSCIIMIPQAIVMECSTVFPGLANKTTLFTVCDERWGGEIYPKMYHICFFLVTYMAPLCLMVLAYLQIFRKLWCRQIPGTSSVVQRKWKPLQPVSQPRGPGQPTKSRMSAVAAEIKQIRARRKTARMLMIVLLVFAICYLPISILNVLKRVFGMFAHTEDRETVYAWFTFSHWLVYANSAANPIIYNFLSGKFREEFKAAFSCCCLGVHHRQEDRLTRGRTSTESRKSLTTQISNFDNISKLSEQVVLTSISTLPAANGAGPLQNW

[1] = target: T2, Orexin/Hypocretin receptor type 1 (Homo sapiens, UniProt O43613); assay: Antagonist activity at recombinant human OX1R expressed in CHO cells by FLIPR calcium based functional assay; format: cell-based
T2 sequence (O43613 whole entry): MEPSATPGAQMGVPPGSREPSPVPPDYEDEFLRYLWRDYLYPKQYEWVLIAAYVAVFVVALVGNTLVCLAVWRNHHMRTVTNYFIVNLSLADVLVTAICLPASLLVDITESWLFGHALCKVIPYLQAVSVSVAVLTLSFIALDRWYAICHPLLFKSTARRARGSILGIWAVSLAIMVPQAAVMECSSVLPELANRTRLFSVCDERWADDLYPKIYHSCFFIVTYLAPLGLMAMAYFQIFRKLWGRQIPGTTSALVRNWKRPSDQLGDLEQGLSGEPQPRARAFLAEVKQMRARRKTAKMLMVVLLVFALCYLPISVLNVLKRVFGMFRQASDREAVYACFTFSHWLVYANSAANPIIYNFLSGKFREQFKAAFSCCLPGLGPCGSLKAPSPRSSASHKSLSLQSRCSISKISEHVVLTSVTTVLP

CL (Liver microsomes) [mL/min/g]	Ki (Orexin receptor type 2) [nM]	Ki [1] [nM]	Structure (SMILES)
> 50	20	5.01	O=C(c1ccccc1-c1ccccc1)N1CCCCC1CCOc1ccc(F)cc1 (racemic)
	126	6.31	O=C(c1cccc2ccccc12)N1CCCC[C@H]1CCOc1ccc(F)cc1
	631	398	N#Cc1cccc(C(=O)N2CCCCC2CCOc2ccc(Cl)c(Cl)c2)c1 (racemic)
	1260	501	CN(C[C@@H]1CCCCN1C(=O)c1ccccc1-c1ccccc1)C(=O)c1ccc(F)cc1
